# Measurements published in PubChem BioAssay (NCI).
# Several values for one entry are separate records, joined by “and”; a condition that tells them apart may be missing. Equal entries are not always repeated.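 The compound was tested at five concentrations on cells cultured in 96-well plates, with a 48-hour exposure period. GI50: concentration for 50% inhibition of growth. TGI is the concentration that stops growth completely.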
# Tests used:
# Assay in all cases: DTP human tumour cell line panel, 48 h
# [1] = test system: K-562 leukemia
# [2] = test system: SK-MEL-28 melanoma
# [3] = test system: OVCAR-5 ovarian
# [4] = test system: COLO 205 colon
# [5] = test system: SF-268 CNS
# [6] = test system: EKVX NSCLC
# [7] = test system: MDA-MB-231 breast
# [8] = test system: A498 renal
# [9] = test system: DU-145 prostate
# [10] = test system: NCI-H23 lung
# [11] = test system: HOP-92 NSCLC
# [12] = test system: DMS 114 small cell lung
# [13] = test system: MDA-MB-435
# [14] = test system: BT-549 breast
# [15] = test system: SNB-19 CNS
# [16] = test system: HOP-18 NSCLC
# [17] = test system: DMS 273 small cell lung
# [18] = test system: OVCAR-3 ovarian
# [19] = test system: M19-MEL melanoma
SMILES,TGI [1],TGI [2],TGI [3],TGI [4],TGI [5],TGI [6],TGI [7] [µM],TGI [8],TGI [9] [µM],TGI [10],TGI [11],TGI [12],TGI [13] [µM],TGI [14] [µM],TGI [15],GI50 [16] [µM],TGI [16],TGI [17],TGI [18],TGI [19]
CCCCCCCCCC[C@@H](O)[C@@H]1CC[C@@H]([C@@H]2CC[C@@H]([C@@H](O)CCCCCCCCCCC(O)CC3=CC(C)OC3=O)O2)O1 (stereo partly drawn),> 10 µM,> 10 µM,> 10 µM,> 10 µM,> 10 µM,> 10 µM,> 10,> 10 µM,> 10,–,–,–,–,–,–,–,–,–,–,–
Cc1c2cc[n+](C)cc2c(C)c2c1[nH]c1ccccc12,43.1 µM and 40.2 µM,4.83 µM and 7.1 µM,56.6 µM and 61.1 µM,4.57 µM and 3.37 µM,1.87 µM and 1.88 µM,11.1 µM and 14 µM,–,68.7 µM and 53.5 µM,24.9,4.8 µM and 6.39 µM,11 µM and 10.1 µM,1.88 µM and 1.99 µM,> 100,8.07,1.09 µM and 1.3 µM,5.47,21.3 µM and 32 µM,12.3 µM and 14.2 µM,19.7 µM and 21.3 µM,3.34 µM and 2.32 µM
